Experimental data: PubChem BioAssay (NCI)
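96-well plates; 48 h exposure; 5 concentrations. Endpoints by linear interpolation between flanking doses. Not reached: highest tested concentration assigned. Abbreviation: GI50, concentration required for 50% inhibition of growth. The concentration for full growth arrest is given as TGI.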

Tests used:
Experiment in all cases: NCI-60 cell line screen, 48 h
NCI-H522 lung = tested on: NCI-H522 lung
HOP-62 NSCLC = tested on: HOP-62 NSCLC
786-0 renal = tested on: 786-0 renal
HCT-116 colon = tested on: HCT-116 colon
OVCAR-4 ovarian = tested on: OVCAR-4 ovarian
SNB-19 CNS = tested on: SNB-19 CNS
HCT-15 colon = tested on: HCT-15 colon
IGROV1 ovarian = tested on: IGROV1 ovarian
MOLT-4 leukemia = tested on: MOLT-4 leukemia
TK-10 renal = tested on: TK-10 renal
OVCAR-3 ovarian = tested on: OVCAR-3 ovarian
EKVX NSCLC = tested on: EKVX NSCLC
HOP-92 NSCLC = tested on: HOP-92 NSCLC
A549 NSCLC = tested on: A549 NSCLC
U251 CNS = tested on: U251 CNS
MDA-MB-435 = tested on: MDA-MB-435
SK-MEL-5 melanoma = tested on: SK-MEL-5 melanoma
HL-60(TB) leukemia = tested on: HL-60(TB) leukemia
CAKI-1 renal = tested on: CAKI-1 renal
MCF7 breast = tested on: MCF7 breast
UACC-62 melanoma = tested on: UACC-62 melanoma
A498 renal = tested on: A498 renal
PC-3 prostate = tested on: PC-3 prostate
OVCAR-5 ovarian = tested on: OVCAR-5 ovarian
T-47D breast = tested on: T-47D breast
HT29 colon = tested on: HT29 colon
BT-549 breast = tested on: BT-549 breast
NCI-H226 lung = tested on: NCI-H226 lung
RXF 393 renal = tested on: RXF 393 renal
SW-620 colon = tested on: SW-620 colon
UO-31 renal = tested on: UO-31 renal
K-562 leukemia = tested on: K-562 leukemia
OVCAR-8 ovarian = tested on: OVCAR-8 ovarian
NCI-H23 lung = tested on: NCI-H23 lung
SN12C renal = tested on: SN12C renal
SNB-75 CNS = tested on: SNB-75 CNS
SK-OV-3 ovarian = tested on: SK-OV-3 ovarian
LOX IMVI melanoma = tested on: LOX IMVI melanoma
MALME-3M melanoma = tested on: MALME-3M melanoma
M14 melanoma = tested on: M14 melanoma
CCRF-CEM leukemia = tested on: CCRF-CEM leukemia
SF-539 CNS = tested on: SF-539 CNS
MDA-MB-231 breast = tested on: MDA-MB-231 breast
SR leukemia = tested on: SR leukemia
UACC-257 melanoma = tested on: UACC-257 melanoma
SK-MEL-2 melanoma = tested on: SK-MEL-2 melanoma
NCI/ADR-RES ovarian = tested on: NCI/ADR-RES ovarian
KM12 colon = tested on: KM12 colon
SF-295 CNS = tested on: SF-295 CNS
HCC-2998 colon = tested on: HCC-2998 colon
HS 578T breast = tested on: HS 578T breast
NCI-H460 lung = tested on: NCI-H460 lung
SF-268 CNS = tested on: SF-268 CNS
ACHN renal = tested on: ACHN renal
RPMI-8226 leukemia = tested on: RPMI-8226 leukemia
COLO 205 colon = tested on: COLO 205 colon
DU-145 prostate = tested on: DU-145 prostate

## CCCCCCCCn1ccc2cc(NC(=O)Cn3cc(CN4CCN(CC)CC4)nn3)ccc21
NCI-H522 lung
  GI50: 1.89 µM
  TGI: 3.84 µM
HOP-62 NSCLC
  GI50: 1.7 µM
  TGI: 3.33 µM
786-0 renal
  GI50: 1.61 µM
  TGI: 3.11 µM
HCT-116 colon
  GI50: 1.7 µM
  TGI: 3.51 µM
OVCAR-4 ovarian
  GI50: 6.46 µM
  TGI: 19.2 µM
SNB-19 CNS
  GI50: 1.9 µM
  TGI: 3.77 µM
HCT-15 colon
  GI50: 1.78 µM
  TGI: 3.79 µM
IGROV1 ovarian
  GI50: 2.17 µM
  TGI: 5.98 µM
MOLT-4 leukemia
  GI50: 2.58 µM
  TGI: 6.68 µM
TK-10 renal
  GI50: 1.77 µM
  TGI: 3.36 µM
OVCAR-3 ovarian
  GI50: 2.7 µM
  TGI: 8.25 µM
EKVX NSCLC
  GI50: 1.81 µM
  TGI: 4.65 µM
HOP-92 NSCLC
  GI50: 1.36 µM
  TGI: 2.9 µM
A549 NSCLC
  GI50: 1.99 µM
  TGI: 4.1 µM
U251 CNS
  GI50: 1.77 µM
  TGI: 3.26 µM
MDA-MB-435
  GI50: 1.78 µM
  TGI: 3.32 µM
SK-MEL-5 melanoma
  GI50: 1.75 µM
  TGI: 3.14 µM
HL-60(TB) leukemia
  GI50: 1.97 µM
  TGI: 4.14 µM
CAKI-1 renal
  GI50: 1.8 µM
  TGI: 3.43 µM
MCF7 breast
  GI50: 1.82 µM
  TGI: 3.73 µM
UACC-62 melanoma
  GI50: 1.91 µM
  TGI: 3.5 µM
A498 renal
  GI50: 2.07 µM
  TGI: 4.97 µM
PC-3 prostate
  GI50: 2.06 µM
  TGI: 5.03 µM
OVCAR-5 ovarian
  GI50: 2.36 µM
  TGI: 6.39 µM
T-47D breast
  GI50: 1.81 µM
  TGI: 3.56 µM
HT29 colon
  GI50: 2 µM
  TGI: 4.39 µM
BT-549 breast
  GI50: 1.76 µM
  TGI: 4.19 µM
NCI-H226 lung
  GI50: 1.59 µM
  TGI: 3.1 µM
RXF 393 renal
  GI50: 1.48 µM
  TGI: 3.04 µM
SW-620 colon
  GI50: 1.9 µM
  TGI: 3.62 µM
UO-31 renal
  GI50: 1.46 µM
  TGI: 2.79 µM
K-562 leukemia
  GI50: 2.05 µM
  TGI: 4.34 µM
OVCAR-8 ovarian
  GI50: 2.33 µM
  TGI: 5.83 µM
NCI-H23 lung
  GI50: 1.96 µM
  TGI: 4.14 µM
SN12C renal
  GI50: 1.82 µM
  TGI: 3.76 µM
SNB-75 CNS
  GI50: 1.52 µM
  TGI: 2.98 µM
SK-OV-3 ovarian
  GI50: 1.78 µM
  TGI: 3.49 µM
LOX IMVI melanoma
  GI50: 1.72 µM
  TGI: 3.2 µM
MALME-3M melanoma
  GI50: 1.68 µM
  TGI: 3.17 µM
M14 melanoma
  GI50: 1.9 µM
  TGI: 3.67 µM
CCRF-CEM leukemia
  GI50: 3.06 µM
  TGI: 10.3 µM
SF-539 CNS
  GI50: 1.68 µM
  TGI: 3.17 µM
MDA-MB-231 breast
  GI50: 1.75 µM
  TGI: 3.38 µM
SR leukemia
  GI50: 3.35 µM
  TGI: 11.8 µM
UACC-257 melanoma
  GI50: 1.83 µM
  TGI: 3.65 µM
SK-MEL-2 melanoma
  GI50: 2.01 µM
  TGI: 3.89 µM
NCI/ADR-RES ovarian
  GI50: 12.2 µM
  TGI: 27.7 µM
KM12 colon
  GI50: 2.08 µM
  TGI: 4.74 µM
SF-295 CNS
  GI50: 1.87 µM
  TGI: 3.7 µM
HCC-2998 colon
  GI50: 1.84 µM
  TGI: 3.43 µM
HS 578T breast
  GI50: 2.14 µM
  TGI: 5.54 µM
NCI-H460 lung
  GI50: 1.94 µM
  TGI: 3.68 µM
SF-268 CNS
  GI50: 1.9 µM
  TGI: 4.01 µM
ACHN renal
  GI50: 1.82 µM
  TGI: 3.47 µM
RPMI-8226 leukemia
  GI50: 2.28 µM
  TGI: 5.39 µM
COLO 205 colon
  GI50: 1.8 µM
  TGI: 3.47 µM
DU-145 prostate
  GI50: 3.4 µM
  TGI: 11.4 µM
